Key:
[1] = test system: PD-1; test: Percent PD-1+/CD8+ T-cells in splenocytes after a single dose, melanoma murine model; assay type: in vivo, mice
Description: (§1) The pharmacodynamic (PD) effects of a single IV dose of Compound B in a melanoma murine model were evaluated. B16F10 melanoma cells were grown in RPMI 1640 media supplemented with 10% FBS and antibiotics (penicillin/streptomycin) using T75 flasks. When cells reached 70-80% confluency, they were treated with 3 ml of 0.25% Trypsin/EDTA. Afterward, detached cells were harvested. A single-cell suspension was prepared in PBS. An IV injection of 10^5 cells in mice marked day −3 of the experiment.
(§2) Animals were housed four per cage, and had access to food and water ad libitum. Compound B was dissolved in sterile PBS, and pH was adjusted to approximately 7.5. Sterile PBS served as control.
(§3) Three days after the IV injection of melanoma cells, animals in the baseline group (n=3) were sacrificed and their spleens were collected for KLRG-1, CTLA-4, and PD-1 analysis. At each predetermined time-point (24, 48, and 120 hours after dosing) three animals from each group were sacrificed for splenocyte analysis of KLRG-1, CTLA-4, and PD-1 expression levels, and expression levels were compared to baseline.
(§4) Spleens collected for splenocyte analysis were prepared into a single-cell suspension for cellular phenotyping by flow cytometry. Cells were stained and gated for CD8. Percent KLRG-1+, CTLA-4+, and PD-1+ CD8+ T-cells were evaluated using flow cytometry.
(§5) The PD effects of a single IV dose of Compound C were evaluated in a melanoma murine model conducted as described in Example 10. […] This study also evaluated whether Compound C was pharmacodynamically active orally.
(§6) In a prior study, Compound C was dosed at 1 mg IV QD for seven days. […] A single PO dose was chosen to confirm oral activity of Compound C. Compound C was dissolved in DMSO, and then diluted in sterile PBS. pH was adjusted to approximately 7.5.
(§7) The oral and intravenous PD effects of a single dose of Compound E were evaluated in a melanoma murine model conducted as described in Example 10.
(§8) Compound E was dissolved in DMSO, and then diluted in sterile PBS. pH was adjusted to approximately 7.5.

[2] = test system: Granzyme B and IFN-γ; test: Dose-response of GranzymeB/IFN-γ double positivity in murine CD8+ T-cells, Example 9; assay type: cell-based, C57BL/6 mice; settings: Mus musculus, T-cell
Description: A dose-response analysis of compounds B-E in murine CD8+ T-cells was conducted to evaluate the effect of dose on GranzymeB/IFN-γ double positivity.
Compound C, D and E were first dissolved in a small volume of DMSO before diluting to the final desired concentration.
Splenocytes from naïve C57BL/6 mice were stained with CFSE, prepared, cultured, and dosed. Cells were seeded at 2×10^5 cells/well. Negative control was dosed with 10 ng/ml IL-2. After ConA stimulation (10 μg/ml), cells were dosed with log 3 dilution of each compound from 3×10^−9 to 30 µM in triplicates. All wells were dosed with 10 ng/ml of IL-2.
Flow cytometer analysis was performed to assess percent CD8+ T-cells and percent activation by double staining for Granzyme B (GzmB) and IFN-γ as described in Example 7. Concentration versus response curve was fitted to a 4- or 5-parameter log-logistic model using the “dre” package in “R”. Both EC50 and EC90 were obtained by model fitting.

[3] = Oral bioavailability; assay type: in vivo; settings: mouse, in vivo; suggested from 2.5 mg oral dose as efficacious as 0.25 mg IV; not evaluated in a PK study
[4] = test system: KLRG1; test: Percent KLRG1+ T-cells in spleens, single dose on Day 7 (Examples 17, 19, 20); assay type: in vivo, C57BL6 mice
Description: (§9) Melanoma B16F10 cells were injected IV into C57BL6 mice on Day 0. On Day 7, mice were administered a single dose of 0.1 mg, 0.25 mg, or 1 mg of Compound E IV or 2.5 mg Compound E PO. One group was left untreated. Three mice at each time point were sacrificed, and their spleens were extracted. Percent KLRG1+ and PD-1^+ T-cells were quantified. Briefly, single-cell suspensions prepared from the extracted spleens were prepared and stained for KLRG1, PD-1 and CD8, and analyzed by flow cytometry.
(§10) Melanoma B16F10 cells were injected IV into C57BL6 mice on Day 0. On Day 7, mice were administered a single dose of 0.03 mg, 0.1 mg, 0.3 mg or 1 mg Compound F IV or 1 mg Compound F PO. One group was left untreated. Three mice at each time point were sacrificed, and their spleens were extracted. Percent KLRG1+ and PD-1^+ T-cells were quantified. Briefly, single-cell suspensions prepared from the extracted spleens were prepared and stained for KLRG1, PD-1 and CD8, and analyzed by flow cytometry.
(§11) Melanoma B16F10 cells were injected IV into C57BL6 mice on Day 0. On Day 7, mice were administered a single dose of 0.1 mg, 0.4 mg, or 1 mg Compound G IV or 1 mg Compound G PO. One group was left untreated. Three mice at each time point were sacrificed, and their spleens were extracted. Percent KLRG1+ and PD-1^+ T-cells were quantified. Briefly, single-cell suspensions prepared from the extracted spleens were prepared and stained for KLRG1, PD-1 and CD8, and analyzed by flow cytometry.

[5] = test system: B16 F10 melanoma cells; test: Tumor growth inhibition using Compound E (Example 18); assay type: in vivo, C57BL/6 mice; settings: 0.3 or 3 mg orally daily for seven days
Description: C57BL/6 mice received 10^5 B16 F10 melanoma cells via SC injection on day 0. At day 7, mice were treated orally with Compound E at 0.3 or 3 mg daily for seven days. Tumor growth inhibition was monitored until all untreated animals reached end point, defined as death by disease (found dead in the cage) or tumor size of 1,000 mm^3 or greater.

[6] = test system: KLRG-1; test: Percent KLRG-1+/CD8+ T-cells in splenocytes after a single dose, melanoma murine model; assay type: in vivo, mice
Description: as §1, §2, §3, §4, §5, §6, §7, §8

[7] = test system: PD-1; test: Percent PD-1+ T-cells in spleens, single dose on Day 7 (Examples 17, 19, 20); assay type: in vivo, C57BL6 mice; settings: E 0.1, 0.25, 1 mg IV or 2.5 mg PO, F 0.03-1 mg IV or 1 mg PO, G 0.1, 0.4, 1 mg IV or 1 mg PO
Description: as §9, §10, §11

[8] = 0.1 mg/mouse IV single dose, 24 h
[9] = 0.1 mg/mouse IV single dose, 48 h
[10] = 0.1 mg/mouse IV single dose, 120 h
[11] = 0.25 mg/mouse IV single dose, 24 h
[12] = 0.25 mg/mouse IV single dose, 48 h
[13] = 0.25 mg/mouse IV single dose, 120 h
[14] = 1 mg/mouse IV single dose, 24 h
[15] = 1 mg/mouse IV single dose, 48 h
[16] = 1 mg/mouse IV single dose, 120 h
[17] = 2.5 mg/mouse po single dose, 24 h
[18] = 2.5 mg/mouse po single dose, 48 h
[19] = 2.5 mg/mouse po single dose, 120 h

SMILES: O=C(O)[C@H](O)[C@@H](O)C(=O)NCCC(c1ccccc1)c1ccccc1 [Compound E, (2R,3R)-4-((3,3-diphenylpropyl)amino)-2,3-dihydroxy-4-oxobutanoic acid]
- PD-1+/CD8+ T-cells, mean [1, 8]: 35%
- PD-1+/CD8+ T-cells, mean [1, 9]: 26%
- PD-1+/CD8+ T-cells, mean [1, 10]: 37%
- PD-1+/CD8+ T-cells, mean [1, 11]: 23%
- PD-1+/CD8+ T-cells, mean [1, 12]: 26%
- PD-1+/CD8+ T-cells, mean [1, 13]: 32%
- PD-1+/CD8+ T-cells, mean [1, 14]: 23%
- PD-1+/CD8+ T-cells, mean [1, 15]: 30%
- PD-1+/CD8+ T-cells, mean [1, 16]: 29%
- PD-1+/CD8+ T-cells, mean [1, 17]: 25%
- PD-1+/CD8+ T-cells, mean [1, 18]: 32%
- PD-1+/CD8+ T-cells, mean [1, 19]: 30%
- decrease from baseline in PD-1+/CD8+ T-cell ([1]; single dose, 0.25 mg or higher, 24 hours): approximately 39%
- EC50 ([2]; 4-parameter model): 0.093 µM
- EC90 ([2]; 4-parameter model): 120 µM
- EC50 ([2]; 5-parameter model): 0.023 µM
- EC90 ([2]; 5-parameter model): 0.6 µM
- Emax ([2]; FIG. 4, 5-parameter fit, read-out: maximal response (GzmB/IFN-γ double positive CD8+ T-cells)): ~60%
- bioavailability [3]: ≥ 10%
- activity after oral administration (KLRG1+, PD1+ T-cells) ([4]; single PO dose: E 2.5 mg, F 1 mg, G 1 mg): effective after oral administration
- percent KLRG1+ T-cells compared to untreated animals ([4]; single dose, E 0.1, 0.25, 1 mg IV or 2.5 mg PO, F 0.03-1 mg IV or 1 mg PO, G 0.1, 0.4, 1 mg IV or 1 mg PO): reduction
- tumor growth [5]: dose-dependent inhibition of tumor growth
- KLRG-1+/CD8+ T-cells, mean [6, 8]: 0.7%
- KLRG-1+/CD8+ T-cells, mean [6, 9]: 1.2%
- KLRG-1+/CD8+ T-cells, mean [6, 10]: 1.0%
- KLRG-1+/CD8+ T-cells, mean [6, 11]: 0.6%
- KLRG-1+/CD8+ T-cells, mean [6, 12]: 0.9%
- KLRG-1+/CD8+ T-cells, mean [6, 13]: 0.6%
- KLRG-1+/CD8+ T-cells, mean [6, 14]: 1.3%
- KLRG-1+/CD8+ T-cells, mean [6, 15]: 0.6%
- KLRG-1+/CD8+ T-cells, mean [6, 16]: 1.2%
- oral pharmacodynamic activity ([6]; 2.5 mg PO single dose): effective after oral administration
- KLRG-1+/CD8+ T-cells, mean [6, 17]: 0.6%
- KLRG-1+/CD8+ T-cells, mean [6, 18]: 1.9%
- KLRG-1+/CD8+ T-cells, mean [6, 19]: 1.2%
- time of nadir of exhaustion markers after dosing ([6]; single dose, KLRG-1, CTLA-4, PD-1): 24 h
- percent PD1+ T-cells compared to untreated animals [7]: reduction

From patent US20250177340A1, “Tartaric Acid Analogs and Uses Thereof” (Lapix Therapeutics, Inc., priority 2021, published 2025)
